Measurements published in patent publication US5846566A, “Microcapsules for the controlled release of acetylsalicylic acid in the gastrointestinal environment” (Flamel Technologies, priority 1993, dated 1998).

Legend:
[1] = system: thromboxane B2 of renal origin; test: urinary excretion of thromboxane B2 (renal origin), repeated administration; type: in vivo, human; conditions: 28 days; 320 mg encapsulated or 350 mg control ASA daily
Experimental: (§1) Twelve healthy male volunteers were assigned to one or other of the following two treatments according to a randomization schedule obtained by drawing lots. Group A received one 320 mg gelatin capsule of encapsulated ASA (microcapsules M1 of Example 1) orally every morning for 28 days. Group B received 350 mg of non-encapsulated control ASA in solution every morning for 28 days.
(§2) During each period, urine samples were taken from each subject for assaying the creatininuria and measuring the platelet and vascular prostaglandins.
(§3) The morning urine was collected at 7 am on days D1, D2, D14, D27 and D28. The subjects were asked to empty their bladder between midnight and 1 am and then not to urinate again until the morning so that the 6-hour urine could be obtained. The morning urination was performed before the subjects got up. Of each sample collected:
(§4) 40 ml were transferred to two appropriately labeled 20 ml polypropylene tubes, which were then frozen immediately at -20° C.
(§5) Thromboxane B2 and 6-ketoprostaglandin F1α are metabolites of […] of renal origin.

11-dehydrothromboxane B2 = test: inhibition of urinary 11-dehydrothromboxane B2, repeated administration; type: in vivo, human; conditions: 28 days; 320 mg encapsulated or 350 mg control ASA daily
Experimental: as §1, §2
(§6) The morning urine was collected at 7 am on days D1, D2, D14, D27 and D28. The subjects were asked to empty their bladder between midnight and 1 am and then not to urinate again until the morning so that the 6-hour urine could be obtained. The morning urination was performed before the subjects got up. Of each sample collected: […]
(§7) The aspirin and salicylic acid were analyzed using an HPLC method specially developed for assaying low levels in biological media. The serum thromboxane B2 was analyzed using an enzyme immunoassay method described by […] et al. [Analytical Chemistry 57, 1170-1173 (1985); Ann. […] For the urine samples, the 11-dehydrothromboxane B2, dinorthromboxane B2 and dinor-6-ketoprostaglandin F1α were analyzed by the method cited above, with prior extraction in the solid phase and purification by thin layer chromatography. […]

[2] = system: urinary dinorthromboxane B2; test: inhibition of urinary dinorthromboxane B2, repeated administration; type: in vivo, human; conditions: 28 days; 320 mg encapsulated or 350 mg control ASA daily
Experimental: as §1, §2, §6, §7

prostacycline = test: inhibition of prostacycline (urinary dinor-6-ketoprostaglandin F1α), repeated administration; type: in vivo, human; conditions: 28 days; 320 mg encapsulated or 350 mg control ASA daily
Experimental: as §1, §2, §6, §7

serum thromboxane B2 = test: inhibition of serum thromboxane B2 after repeated administration for 28 days; type: in vivo, human; conditions: as from the third day of treatment; 320 mg encapsulated or 350 mg control ASA daily
Experimental: as §1
In both cases, the subjects took the treatments with 200 ml of water.
Samples (5 cl) for measurement of the serum thromboxane B2 were taken before administration of the daily treatment on D1, D2, D3, D4, D5, D14, D21, D27, D28 and D42.
The aspirin and salicylic acid were analyzed using an HPLC method specially developed for assaying low levels in biological media. The serum thromboxane B2 was analyzed using an enzyme immunoassay method described by […] et al. [Analytical Chemistry 57, 1170-1173 (1985); Ann. Biol. Clin. 43, 475-484 (1985)]. For the urine samples, the 11-dehydrothromboxane B2, dinorthromboxane B2 and dinor-6-ketoprostaglandin F1α were analyzed by the method cited above, with prior extraction in the solid phase and purification by thin layer chromatography. This method was validated by gas chromatography coupled with mass spectrometry using a negative ion ionization detector [LELLOUCHE et al., Prostaglandine 40, 297-310 (1990)].

6-ketoprostaglandin F1α = test: urinary excretion of 6-ketoprostaglandin F1α (renal origin), repeated administration; type: in vivo, human; conditions: 28 days; 320 mg encapsulated or 350 mg control ASA daily
Experimental: as §1, §2, §3, §4, §5

thromboxane = conditions: daily dose; very substantially below the minimum percentage; cited from earlier work
vascular prostacycline = conditions: daily dose; cited from earlier work
Sprague-Dawley rats = test: acute oral toxicity in rats; type: in vivo, rat (Sprague-Dawley)
Experimental: (§8) The microcapsules of aspirin M1 prepared according to Example 1 were subjected to a toxicological study by comparison with commercial aspirin (CA) in the form of a white powder. The acute toxicity of these two pharmaceutical forms of aspirin was evaluated and compared by oral administration to rats.
(§9) Each of the two formulations of the product was administered orally to groups of 10 Sprague-Dawley rats (5 males and 5 females) in a volume of 10 ml/kg and in suspension in 0.5% carboxymethyl cellulose. […] All the animals were placed on a water diet before the treatment.
(§10) The mortality, the general behavior and the weight change of the surviving animals were followed for a period of 14 days after the single administration of the product. An anatomicopathological examination was carried out on each of the animals found dead or sacrificed at the end of the study.
(§11) The LD50 was calculated by Finney's method.

[3] = acute oral toxicity in rats; type: in vivo, rat (Sprague-Dawley); conditions: rat, in vivo, 14 days
Experimental: as §8, §9, §10, §11

## CC(=O)Oc1ccccc1C(=O)O [control ASA, acetylsalicylic acid]
[1]
  inhibition of prostaglandins of renal origin (thromboxane B2, first value pair): 42.8%
11-dehydrothromboxane B2
  inhibition of urinary metabolite of thromboxane (11-dehydrothromboxane B2, first value pair): 75.6%
[2]
  inhibition of urinary metabolite of thromboxane (dinorthromboxane B2, second value pair): 68.9%
prostacycline
  inhibition of the prostacycline: 43.2%
Serum thromboxane B2
  inhibition of thromboxane originating from the platelets: 98.15%
6-ketoprostaglandin F1α
  inhibition of prostaglandins of renal origin (6-ketoprostaglandin F1α, second value pair): 34.6%

## CC(=O)Oc1ccccc1C(=O)O [conventional aspirin, acetylsalicylic acid]
thromboxane
  thromboxane inhibition: < 95%
Vascular prostacycline
  inhibition of vascular prostacycline: 25%

## CC(=O)Oc1ccccc1C(=O)O [CA, acetylsalicylic acid]
Sprague-Dawley rats; 740 and 1110 mg/kg
  autopsy findings: no macroscopic anomalies
Sprague-Dawley rats; 1670 and 2500 mg/kg, animals found dead
  autopsy findings: abnormally blackish coloration of the liver, a discoloration with wall thickening in the digestive tract (intestines and stomach) and reddish petechiae in the stomach
Sprague-Dawley rats; CA 740-2500 mg/kg (between day 1 and day 5), CRA 2500 mg/kg (throughout the study)
  weight change: slight drop in the weight gain, related to the dose administered
Sprague-Dawley rats; CA 740-2500 mg/kg, CRA 2500 mg/kg
  general behavior: a drop in the spontaneous activity, related to the dose administered, and piloerection
Sprague-Dawley rats; probability threshold of 95%
  LD50, lower limit of the confidence interval: 936 mg/kg
  LD50, upper limit of the confidence interval: 2394 mg/kg
[3]
  LD50 at 336 h: 1430 mg/kg
